Laboratory results as given in ChEMBL document CHEMBL3616426 (Eur J Med Chem, 2015).
Activity calls are given as the source filed them. The calls are words filed in the database; no cut-off is given here.

Columns and labels:
[1] = test system: Rattus norvegicus; experiment: Antiosteoporotic activity in ovariectomized Sprague-Dawley rat assessed as trabecular thickness at 10 ug/kg, po qd at 6th week by micro-CT analysis (reference value: 0.086 +/- 0.0069 millimeter); type: functional, Trabecula
[2] = test system: Rattus norvegicus; experiment: Antiosteoporotic activity in ovariectomized Sprague-Dawley rat assessed as trabecular thickness at 3 ug/kg, po qd at 12th week by micro-CT analysis (reference value: 0.070 +/- 0.0063 millimeter); type: functional, Trabecula
[3] = test system: Rattus norvegicus; experiment: Antiosteoporotic activity in ovariectomized Sprague-Dawley rat assessed as trabecular separation at 3 ug/kg, po qd at 6th week by micro-CT analysis (reference value: 0.116 +/- 0.010 millimeter); type: functional, Trabecula
[4] = test system: Rattus norvegicus; experiment: Antiosteoporotic activity in ovariectomized Sprague-Dawley rat assessed as serum osteocalcin level at 1 ug/kg, po qd at 12th week by enzyme immunoassay (reference value: 1055.8 +/- 14 ng/ml); type: functional
[5] = test system: Rattus norvegicus; experiment: Antiosteoporotic activity in ovariectomized Sprague-Dawley rat assessed as bone volume /tissue volume at 1 ug/kg, po qd at 18th week by micro-CT analysis (reference value: 27.36 +/- 1.99%); type: functional
[6] = test system: Rattus norvegicus; experiment: Antiosteoporotic activity in ovariectomized Sprague-Dawley rat assessed as bone volume /tissue volume at 3 ug/kg, po qd at 12th week by micro-CT analysis (reference value: 31.61 +/- 2.39%); type: functional
[7] = test system: Rattus norvegicus; experiment: Antiosteoporotic activity in ovariectomized Sprague-Dawley rat assessed as bone mineral density recovery at 10 ug/kg, po qd measured at 18th week by micro-CT analysis relative to SHAM control; type: functional
[8] = test system: Rattus norvegicus; experiment: Antiosteoporotic activity in ovariectomized Sprague-Dawley rat assessed as decrease in serum osteocalcin level at 10 ug/kg, po qd at 18th week by enzyme immunoassay relative to SHAM control; type: functional, organism-based
[9] = test system: Rattus norvegicus; experiment: Antiosteoporotic activity in ovariectomized Sprague-Dawley rat assessed as decrease in serum osteocalcin level at 3 ug/kg, po qd at 18th week by enzyme immunoassay relative to SHAM control; type: functional, organism-based
[10] = test system: Rattus norvegicus; experiment: Antiosteoporotic activity in ovariectomized Sprague-Dawley rat assessed as serum osteocalcin level at 10 ug/kg, po qd at 18th week by enzyme immunoassay (reference value: 1118.9 +/- 37.77 ng/ml); type: functional
[11] = test system: Rattus norvegicus; experiment: Antiosteoporotic activity in ovariectomized Sprague-Dawley rat assessed as bone volume /tissue volume recovery at 10 ug/kg, po qd measured at 18th week by micro-CT analysis relative to SHAM control; type: functional
[12] = test system: Rattus norvegicus; experiment: Antiosteoporotic activity in ovariectomized Sprague-Dawley rat assessed as bone volume /tissue volume at 10 ug/kg, po qd at 18th week by micro-CT analysis (reference value: 27.36 +/- 1.99%); type: functional
[13] = test system: Rattus norvegicus; experiment: Antiosteoporotic activity in ovariectomized Sprague-Dawley rat assessed as trabecular thickness at 10 ug/kg, po qd at 12th week by micro-CT analysis (reference value: 0.070 +/- 0.0063 millimeter); type: functional, Trabecula
[14] = test system: Rattus norvegicus; experiment: Antiosteoporotic activity in ovariectomized Sprague-Dawley rat assessed as trabecular separation at 10 ug/kg, po qd at 6th week by micro-CT analysis (reference value: 0.116 +/- 0.010 millimeter); type: functional, Trabecula
[15] = test system: Rattus norvegicus; experiment: Antiosteoporotic activity in ovariectomized Sprague-Dawley rat assessed as trabecular separation at 3 ug/kg, po qd at 12th week by micro-CT analysis (reference value: 0.146 +/- 0.010 millimeter); type: functional, Trabecula
[16] = test system: Rattus norvegicus; experiment: Antiosteoporotic activity in ovariectomized Sprague-Dawley rat assessed as bone volume /tissue volume at 10 ug/kg, po qd at 6th week by micro-CT analysis (reference value: 41.33 +/- 5.04%); type: functional
[17] = test system: Mus musculus; experiment: Acute toxicity in ICR mouse assessed as survival at 5000 ug/kg, po after 2 weeks; type: organism-based; settings: in vivo, 5 mg/kg, 336 h
[18] = test system: Rattus norvegicus; experiment: Antiosteoporotic activity in ovariectomized Sprague-Dawley rat assessed as trabecular thickness at 10 ug/kg, po qd at 18th week by micro-CT analysis (reference value: 0.103 +/- 0.0044 millimeter); type: functional, Trabecula
[19] = test system: Rattus norvegicus; experiment: Antiosteoporotic activity in ovariectomized Sprague-Dawley rat assessed as trabecular separation recovery at 10 ug/kg, po qd measured at 18th week by micro-CT analysis relative to SHAM control; type: functional, organism-based; settings: Trabecula
[20] = test system: Rattus norvegicus; experiment: Antiosteoporotic activity in ovariectomized Sprague-Dawley rat assessed as trabecular separation at 1 ug/kg, po qd at 6th week by micro-CT analysis (reference value: 0.116 +/- 0.010 millimeter); type: functional, Trabecula
[21] = test system: Rattus norvegicus; experiment: Antiosteoporotic activity in ovariectomized Sprague-Dawley rat assessed as bone volume /tissue volume at 1 ug/kg, po qd at 6th week by micro-CT analysis (reference value: 41.33 +/- 5.04%); type: functional
[22] = test system: Rattus norvegicus; experiment: Antiosteoporotic activity in ovariectomized Sprague-Dawley rat assessed as trabecular separation at 3 ug/kg, po qd at 18th week by micro-CT analysis (reference value: 0.234 +/- 0.021 millimeter); type: functional, Trabecula
[23] = test system: Rattus norvegicus; experiment: Antiosteoporotic activity in ovariectomized Sprague-Dawley rat assessed as trabecular thickness at 1 ug/kg, po qd at 18th week by micro-CT analysis (reference value: 0.103 +/- 0.0044 millimeter); type: functional, Trabecula
[24] = test system: Rattus norvegicus; experiment: Antiosteoporotic activity in ovariectomized Sprague-Dawley rat assessed as trabecular thickness at 1 ug/kg, po qd at 12th week by micro-CT analysis (reference value: 0.070 +/- 0.0063 millimeter); type: functional, Trabecula
[25] = test system: Rattus norvegicus; experiment: Antiosteoporotic activity in ovariectomized Sprague-Dawley rat assessed as trabecular separation at 10 ug/kg, po qd at 18th week by micro-CT analysis (reference value: 0.234 +/- 0.021 millimeter); type: functional, Trabecula
[26] = test system: Rattus norvegicus; experiment: Antiosteoporotic activity in ovariectomized Sprague-Dawley rat assessed as bone volume /tissue volume at 10 ug/kg, po qd at 12th week by micro-CT analysis (reference value: 31.61 +/- 2.39%); type: functional
[27] = biological target: Estrogen receptor beta (Homo sapiens, UniProt Q92731); experiment: Agonist activity at ERbeta (248 to 510 amino acid residues) (unknown origin) assessed as induction of interaction with SRC1 after 24 hrs by yeast two-hybrid assay
[28] = test system: Rattus norvegicus; experiment: Antiosteoporotic activity in ovariectomized Sprague-Dawley rat assessed as trabecular separation at 1 ug/kg, po qd at 12th week by micro-CT analysis (reference value: 0.146 +/- 0.010 millimeter); type: functional, Trabecula
[29] = test system: Rattus norvegicus; experiment: Antiosteoporotic activity in ovariectomized Sprague-Dawley rat assessed as trabecular thickness recovery at 10 ug/kg, po qd measured at 18th week by micro-CT analysis relative to SHAM control; type: functional, Trabecula
[30] = test system: Rattus norvegicus; experiment: Antiosteoporotic activity in ovariectomized Sprague-Dawley rat assessed as trabecular separation at 10 ug/kg, po qd at 12th week by micro-CT analysis (reference value: 0.146 +/- 0.010 millimeter); type: functional, Trabecula

Sequence of Estrogen receptor beta (Q92731 whole entry, the tested form may be a part): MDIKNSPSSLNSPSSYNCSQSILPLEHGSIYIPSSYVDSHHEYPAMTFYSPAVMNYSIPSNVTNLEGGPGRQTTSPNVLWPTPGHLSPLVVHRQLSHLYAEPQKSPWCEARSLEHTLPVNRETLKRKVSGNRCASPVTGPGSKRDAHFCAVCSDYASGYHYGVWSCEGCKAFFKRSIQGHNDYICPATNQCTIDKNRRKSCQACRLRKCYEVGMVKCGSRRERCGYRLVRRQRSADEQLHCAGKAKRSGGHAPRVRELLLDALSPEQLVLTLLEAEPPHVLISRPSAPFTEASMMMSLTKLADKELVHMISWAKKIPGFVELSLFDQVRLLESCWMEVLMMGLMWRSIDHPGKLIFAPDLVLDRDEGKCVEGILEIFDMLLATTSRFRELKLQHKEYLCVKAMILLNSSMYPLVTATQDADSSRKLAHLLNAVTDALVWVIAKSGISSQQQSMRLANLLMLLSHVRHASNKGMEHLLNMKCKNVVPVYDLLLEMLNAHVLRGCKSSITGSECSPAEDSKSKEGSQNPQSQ

`O=C1c2cc(O)cc(O)c2[C@@H](c2ccc(O)cc2)[C@@H]1c1cc(O)cc(O)c1` [ISOPAUCIFLORAL F] showed an Activity [1] of 0.082 mm, an Activity [2] of 0.085 mm and an Activity [3] of 0.097 mm. For the same compound, the Activity [4] was 1172.9 ng/mL, the Activity [5] was 35.56% and the Activity [6] was 41.01%. The Activity [7] was 90%, the Activity [8] was “Active” and the Activity [9] was “Active”. It also gave an Activity [10] of 702.2 ng/mL, an Activity [11] of 78% and an Activity [12] of 66.42%. It also gave an Activity [13] of 0.087 mm, an Activity [14] of 0.118 mm and an Activity [15] of 0.173 mm. For the same compound, the Activity [16] was 40.25%, the Activity [17] was “Non-toxic” and the Activity [18] was 0.212 mm. For the same compound, the Activity [19] was “inactive”, the Activity [20] was 0.104 mm and the Activity [21] was 40.38%. For the same compound, the Activity [22] was 0.183 mm, the Activity [23] was 0.106 mm and the Activity [24] was 0.086 mm. It also gave an Activity [25] of 0.096 mm, an Activity [26] of 38.43% and an EC50 [27] of 47 µM. It also gave an Activity [28] of 0.18 mm, an Activity [29] of 78% and an Activity [30] of 0.138 mm.
